We go through four compounds from patent US12005033B2, “Compositions comprising mixtures of semifluorinated alkanes” (Novaliq GmbH, priority 2012, dated 2024).

The nature of this data set: Liquid droplet spread area on a glass surface. The settings on record: 2 minutes after application of 50 μL of liquid to a glass surface. It counts as physicochemical.
For the compound `CCCCCC(F)(F)C(F)(F)C(F)(F)C(F)(F)F` [F4H5, F(CF2)4(CH2)5H], the “Liquid covered surface area” value was 7.54 ± 0.33 cm^2.
The same measure for `FC1(F)C(F)(F)C(F)(F)C2(F)C(F)(F)C(F)(F)C(F)(F)C(F)(F)C2(F)C1(F)F` (stereo not shown) [Perfluorodecalin, reference compound]: 1.45 ± 0.02 cm^2; for `CCCCCCCCC` [Nonane, reference compound]: 5.20 ± 0.18 cm^2; for `CCCCCCCCC(F)(F)C(F)(F)C(F)(F)C(F)(F)C(F)(F)C(F)(F)F` [F6H8, F(CF2)6(CH2)8H]: 12.89 ± 0.94 cm^2.
